Measurements published in patent US7485619B2, “Antimicrobial agent” (priority 2005, dated 2009).
Like-named read-outs stand apart in the source and are kept apart here. No end group written: not given here.

Key:
[1] = Bacteriocidal activity of salivary mucocidin fractions; format: cell-based; conditions: both Superose 12 peak fractions
Experimental: Thirty milliliters of parotid saliva from each volunteer was collected into the tube containing 1.0 ml of 0.25 M citrate buffer, pH 4.0 containing 0.02% NaN3. The 10 ml acidified saliva was adsorbed into SP-Sepharose column (2.4×6 ml) equilibrated with 0.025 M citrate buffer pH 4.0, the column was washed with 3 fold column volume each of the equilibrating buffer and the 0.05 M tris-acetate buffer pH 6.0 containing 1 mM EDTA. The mucocidin was eluted with the 0.05 M tris-acetate buffer, pH 6.0 containing 0.15 M NaCl. The eluted mucocidin containing fractions assayed by immunodot blot analysis were pooled and concentrated in Speed-vac centrifuge evaporation apparatus. Pooled mucocidin fractions were applied to Superose 12 column equilibrated with 0.02 M tris-acetate buffer pH 6.0. Two of the mucocidin peaks were detected first at 8 kDa molecular weight marker and next far beyond the column volume.

E. coli [2] = experiment: Antimicrobial activity of isolated native salivary mucocidin; format: cell-based; conditions: data not shown
[3] = tested on: Staphylococcus aureus (ATCC 25923); format: cell-based; conditions: for bactericidal activity (in words): Table 1
Experimental: (§1) FIGS. 2A-2C show antimicrobial activity of mucocidin. (A) The growth rate of E. coli (0.5×10^3) containing pBluescript SK plasmid with mucocidin cDNA insert and the control E. coli containing plasmid alone in 20 ml LB broth cultured for 5 days. Cell growth was monitored by Absorbance at 600 nm (A600). Induction of vector expression by 20 μL isopropyl-B-D-thiogalactopyranoside (IPTG 1 mM) is on the bottom line. Each point represents average of five experiments. (B) Bactericidal activity of synthetic mucocidin peptide was measured by the percent colony formation units of E. coli and Staphylococcus aureus. Cells (5×10^5) were cultured in 100 μL in IB broth containing 0, 5, 10, 20 μM concentration of mucocidin. After one hour, cell viability was determined by plating 300 μL aliquots of the 200 fold diluted cultured cell broth on LBA or TSA plates, respectively. […] (C) Scanning electron micrographs of E. coli, Staphylococcus aureus and Candida albicans incubated with 10, […] mucocidin, respectively for 10, 20 and 30 min, and they were immediately fixed with glutaraldehyde, dried on the Millipore membrane, and coated with gold. […] All photographs were taken at the same magnification. Scale bar, 1 μm.
(§2) E. coli (ATCC 20922) (5×10^5 cells) in 100 μL of 10 mM Phosphate Buffer, pH 7.0 containing mucocidin peptide concentration of 5, 10, 15, 20, or 50 μM was incubated for an hour. Then, it was diluted 200 fold with the same buffer and 300 μL aliquots (approx. 750 cells) were plated on 150 mm LB plate and grown overnight at 37° C. The grown colonies were counted. The cell viability was estimated by the percent of colony forming units. Staphylococcus aureus (ATCC 25923) and methicillin resistant Staphylococcus aureus (MRSA) (ATCC 700698) were incubated with mucocidin concentration up to 5 μM. Candida albicans (ATCC 10231) were incubated with mucocidin concentration levels up to 50 μM^44.
Bactericidal activity of various deletion peptides of mucocidin (PeptRon, Korea) was compared with the activity of Magainin II (23 mer) peptide (Table 1). […] Also first 15 residue peptide likely functions as propeptide and native peptide will likely have 31 residues.

[4] = tested on: P. aeruginosa (ATCC #9027); experiment: USP Antimicrobial Test; format: cell-based; conditions: three log dilution
From the text: (§3) The mucocidin (Microtest Laboratories Test sample #05-03383) met the requirement of the USP Validation of Microbial Recovery.

[5] = tested on: Aspergellous niger (ATCC #16404); experiment: USP Antimicrobial Test; format: cell-based; conditions: three log dilution
From the text: as §3

S. aureus (ATCC #6538) = experiment: USP Antimicrobial Test; format: cell-based; conditions: three log dilution
From the text: as §3

[6] = tested on: Candida albicans (ATCC #10231); experiment: USP Antimicrobial Test; format: cell-based; conditions: three log dilution
From the text: as §3

E. coli (ATCC #8739) = experiment: USP Antimicrobial Test; format: cell-based; conditions: three log dilution
From the text: as §3

[7] = tested on: methicillin-resistant Staphylococcus aureus (ATCC 700698); format: cell-based
Experimental: as §2

[8] = tested on: Candida albicans (ATCC 10231); format: cell-based
Experimental: as §2

Candida albicans = experiment: Scanning electron micrography of microbes treated with mucocidin; format: cell-based; conditions: 100 μM mucocidin; 10, 20 and 30 min
Experimental: as §1
(§4) Scanning Electron Micrographs were taken of E. coli, Staphylococcus aureus and Candida albicans incubated with 10, 40, 100 μM mucocidin, respectively for 10, 20 and 30 min, and they were immediately fixed with glutaraldehyde, dried on Millipore membrane, and coated with gold. […] All photographs were taken at the same magnification.
(§5) The primary growth of E. coli containing the mucocidin peptide was inhibited in a dose-dependent manner (FIG. 2B). […] To explore a possible mechanism of mucocidin elicited bactericidal activity, the progress of morphological alteration of microbes upon the treatment of mucocidin was determined by scanning electron Microscopy. E. coli, Staphylococcus aureus and Candida albicans (FIG. 2C) incubated with 10, 40, 100 μM mucocidin, respectively for various time periods, were immediately fixed, dried, and coated with gold. […]

Staphylococcus aureus = experiment: as above; format: cell-based; conditions: 40 μM mucocidin; 10, 20 and 30 min
Experimental: as §1, §4, §5

E. coli [9] = experiment: as above; format: cell-based; conditions: 10 μM mucocidin; 10, 20 and 30 min
Experimental: as §1, §4, §5

E. coli (ATCC25922) = format: cell-based; conditions: for decrease of colony forming unit (CFU) percentages: one hour incubation
Experimental: as §1, §2

[10] = target: T1, guinea pig liver transglutaminase (UniProt P08587); experiment: Mucocidin as transglutaminase substrate, monodansylcadaverine incorporation; format: biochemical; conditions: 50 μM mucocidin, 10 μM MDC; 20, 40, 60, 120 min; with or without Ca++
T1 construct: using guinea pig liver transglutaminase (Sigma, St. Luois, Mo.); purchased Sigma; host or cells: guinea pig liver
Experimental: Mucocidin as a transglutaminase substrate was carried out by a slightly modified method of previously described^27 using guinea pig liver transglutaminase (Sigma, St. Luois, Mo.). Transglutaminase assay was carried out by adding 10 μl of enzyme (10 μg) into 90 μL of reaction mixture containing 0.05 M tris acetate buffer, pH 8.0,1 mM EDTA, 5 mM dithiothreitol, 10 mM CaCl2, 0.2% lubrol, and 10 μM of monodansylcadaverine (MDC)(Sigma) and mucocidin (50 μM). Ten μL aliquot of the reaction mixture was removed at 20, 40, 60 and 120 min and added into 500 μL volume of 1 mM EDTA solution to halt the enzyme reaction. Unreacted MDC in solution was extracted with n-hexane. The reacted mucocidin in aqueous solution was blotted on a cellulose nitrate membrane in a slot filtering apparatus (Bio Rad Lab) and washed once with 0.5 mL of water. Relative fluorescence was indicated as a measure of MDC incorporated mucocidin. The aliquots taken from each sample was analyzed on SDS-PAGE.
These immunological staining of the mucosal epithelium indicate that mucocidin is expressed in the outer layers of epithelium and the secreted peptide remains bound to the epithelial surface. […]

T1 sequence (P08587 whole entry): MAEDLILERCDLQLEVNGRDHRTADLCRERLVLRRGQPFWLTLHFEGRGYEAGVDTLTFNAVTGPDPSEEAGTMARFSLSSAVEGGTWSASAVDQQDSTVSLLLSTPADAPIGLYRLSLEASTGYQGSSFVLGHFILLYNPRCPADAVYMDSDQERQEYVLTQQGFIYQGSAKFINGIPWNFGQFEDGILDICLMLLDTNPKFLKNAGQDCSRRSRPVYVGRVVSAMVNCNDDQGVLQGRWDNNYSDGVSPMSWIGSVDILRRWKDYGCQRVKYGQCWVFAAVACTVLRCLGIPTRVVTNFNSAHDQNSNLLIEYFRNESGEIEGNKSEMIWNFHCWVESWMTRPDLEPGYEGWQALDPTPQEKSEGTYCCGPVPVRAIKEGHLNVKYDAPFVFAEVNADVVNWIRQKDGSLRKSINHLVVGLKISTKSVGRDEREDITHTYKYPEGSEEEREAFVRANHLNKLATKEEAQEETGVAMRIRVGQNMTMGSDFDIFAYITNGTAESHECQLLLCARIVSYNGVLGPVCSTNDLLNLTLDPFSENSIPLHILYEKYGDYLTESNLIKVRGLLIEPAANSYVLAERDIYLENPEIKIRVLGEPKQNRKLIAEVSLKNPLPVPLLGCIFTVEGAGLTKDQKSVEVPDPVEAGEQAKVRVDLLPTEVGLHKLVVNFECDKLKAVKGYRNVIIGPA

For “isolated native salivary mucocidin: glycosylated native mucocidin isolated from human parotid saliva by ion exchange and Superose 12 chromatography (MHDFWVLWVLLEYIYNSACSVLSATSSVSSRVLNRSLQVKVVKITN; also: glycosylated, sites not given here)”, the bacteriocidal activity [1] was “bacteriocidal activity similar to mucocidin peptides” and the “antimicrobial activity against E. coli” value (E. coli [2]) was “retained antimicrobial activity”.

With “VLNRSLQVKVVKITN [Peptide 15-mer, VLNRSLQVKVVKITN]” the “S. aureus (MBC, μM)” value ([3]; ATCC 25923) was over 20.0 µM.

In the case of “ATSSVSSRVLNRSLQVKVVKITN [Peptide 23-mer-C]”, the “growth of the organism” value [4] is reported as “almost no growth”, the “growth of the organism” value [5] is reported as “almost no growth” and the “growth of the organism” value (S. aureus (ATCC #6538)) is reported as “almost no growth”. The “growth of the organism” value [6] was “almost no growth”, the “growth of the organism” value (E. coli (ATCC #8739)) was “almost no growth” and the “S. aureus (MBC, μM)” value ([3]; ATCC 25923) was over 10.0 µM.

In the case of CC1(C)S[C@@H]2[C@H](NC(=O)[C@H](N)c3ccccc3)C(=O)N2[C@H]1C(=O)O [ampicillin, reference compound], the “sensitivity of methicillin-resistant Staphylococcus aureus (in words)” value [7] is reported as “insensitive”.

With “EYIYNSACSVLSATSSVSSRVLNRSLQVKVVKITN [Peptide 35-mer]” the “S. aureus (MBC, μM)” value ([3]; ATCC 25923) was over 50.0 µM.

For “MHDFWVLWVLLEYIYNSACSVLSATSSVSSRVLNRSLQVKVVKITN [Peptide 46-mer]”, the “minimal bactericidal concentration (MBC)” value [8] was 80 ± 13.5 µM, the “minimal bactericidal concentration (MBC)” value [7] was 50 ± 10.9 µM and the “sensitivity of methicillin-resistant Staphylococcus aureus (in words)” value [7] was “very sensitive to low concentrations”. The “morphology of the microbe by SEM” value (Candida albicans) was “loss and shrinkage of original cell shapes”, the “morphology of the microbe by SEM” value (Staphylococcus aureus) was “loss and shrinkage of original cell shapes” and the “morphology of the microbe by SEM” value (E. coli [9]) was “loss and shrinkage of original cell shapes”. The “S. aureus (MBC, μM)” value ([3]; ATCC 25923) was over 70.0 µM, the “minimal bactericidal concentration (MBC)” value ([3]; ATCC 25923) was 3 ± 0.5 µM and the “sensitivity of primary growth of Staphylococcus aureus relative to E. coli” value ([3]; S. aureus versus E. coli) was “ten fold more sensitive”. The “bactericidal activity (in words)” value [3] was “good bactericidal activity”, the “decrease of colony forming unit (CFU) percentages” value (“decrease … (CFU) percentages” for short) (E. coli (ATCC25922); 5 μM mucocidin) was 20% and the “decrease … (CFU) percentages” value (E. coli (ATCC25922); 10 μM mucocidin) was 40%. For the same compound, the “decrease … (CFU) percentages” value (E. coli (ATCC25922); 15 μM mucocidin) was 50%, the “decrease … (CFU) percentages” value (E. coli (ATCC25922); 20 μM mucocidin) was 60% and the “minimal bactericidal concentration (MBC)” value (E. coli (ATCC25922); ATCC25922) was 40 ± 7.3 µM. For the same compound, the “time-dependent uptake of MDC into mucocidin” value [10] was “detected only in the presence of Ca^++”.

With SSVSSRVLNRSLQVKVVKITN [Peptide 21-mer] the “S. aureus (MBC, μM)” value ([3]; ATCC 25923) was over 3.5 µM.

With “M^1HDFWVLWVLLEYIYNSACSVLS^23 (MHDFWVLWVLLEYIYNSACSVLS; listed as Homo sapiens) [Peptide 23-mer-N, mucocidin residues 1-23]” the “bactericidal activity (in words)” value [3] was “no activity”.

For “SRVLNRSLQVKVVKITN [Peptide 17-mer, SRVLNRSLQVKVVKITN]”, the “S. aureus (MBC, μM)” value ([3]; ATCC 25923) was over 5.0 µM.

For “GIGKFLHSAKKFGKAFVGEIMNS [Magainin II, reference compound]”, the “S. aureus (MBC, μM)” value ([3]; Table 1, deletion peptides) was over 3.0 µM.

In the case of “VSSRVLNRSLQVKVVKITN [Peptide 19-mer, VSSRVLNRSLQVKVVKITN]”, the “S. aureus (MBC, μM)” value ([3]; ATCC 25923) is reported as over 3.5 µM.
